Assay results reported in paper PMC7834599 (Bioorganic & Medicinal Chemistry Letters, 2020).

How the values were obtained:
[1] = tested on: TNF-α; assay: TNF-α release in LPS-ATP treated THP-1 cells; format: cell-based, Human
[2] = biological target: T1, AIM2 inflammasome (Homo sapiens, UniProt O14862); assay: Poly; format: cell-based; details: THP-1 cells, Poly (dA:dT)
T1 sequence (O14862 1-343): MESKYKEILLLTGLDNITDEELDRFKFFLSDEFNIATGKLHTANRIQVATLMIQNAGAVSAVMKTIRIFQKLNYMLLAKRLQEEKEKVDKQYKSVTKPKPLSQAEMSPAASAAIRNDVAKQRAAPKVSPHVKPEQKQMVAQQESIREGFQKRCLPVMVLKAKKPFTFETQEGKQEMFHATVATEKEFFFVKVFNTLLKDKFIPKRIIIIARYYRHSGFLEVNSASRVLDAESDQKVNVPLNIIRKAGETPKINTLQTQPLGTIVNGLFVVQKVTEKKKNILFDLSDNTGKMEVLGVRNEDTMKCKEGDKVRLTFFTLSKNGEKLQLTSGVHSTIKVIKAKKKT

[3] = tested on: ASC; assay: ASC oligomerization assay in THP-1 cells; format: cell-based, Human; details: LPS-ATP NLRP3 activated THP-1 cells, western blot
[4] = biological target: T2, CYP2C8 (Homo sapiens, UniProt P10632); assay: CYP inhibition in human liver microsomes; format: in vitro ADME
T2 sequence (P10632 1-490): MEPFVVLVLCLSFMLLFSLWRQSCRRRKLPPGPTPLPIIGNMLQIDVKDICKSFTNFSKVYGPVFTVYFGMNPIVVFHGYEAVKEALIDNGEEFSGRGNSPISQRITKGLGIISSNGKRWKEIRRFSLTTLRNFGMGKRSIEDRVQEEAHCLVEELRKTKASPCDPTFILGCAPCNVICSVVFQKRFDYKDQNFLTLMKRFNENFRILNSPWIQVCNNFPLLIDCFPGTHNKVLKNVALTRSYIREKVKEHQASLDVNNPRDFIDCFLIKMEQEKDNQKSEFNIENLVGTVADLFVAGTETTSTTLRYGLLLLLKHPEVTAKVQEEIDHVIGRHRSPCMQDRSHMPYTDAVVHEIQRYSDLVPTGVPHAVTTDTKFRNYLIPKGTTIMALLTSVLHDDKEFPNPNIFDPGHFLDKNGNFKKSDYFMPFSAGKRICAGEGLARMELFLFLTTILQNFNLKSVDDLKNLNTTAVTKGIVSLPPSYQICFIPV

[5] = biological target: CYP2C9 (Homo sapiens, UniProt P11712); assay: CYP inhibition in human liver microsomes; format: in vitro ADME
Chain of CYP2C9 (P11712 whole entry): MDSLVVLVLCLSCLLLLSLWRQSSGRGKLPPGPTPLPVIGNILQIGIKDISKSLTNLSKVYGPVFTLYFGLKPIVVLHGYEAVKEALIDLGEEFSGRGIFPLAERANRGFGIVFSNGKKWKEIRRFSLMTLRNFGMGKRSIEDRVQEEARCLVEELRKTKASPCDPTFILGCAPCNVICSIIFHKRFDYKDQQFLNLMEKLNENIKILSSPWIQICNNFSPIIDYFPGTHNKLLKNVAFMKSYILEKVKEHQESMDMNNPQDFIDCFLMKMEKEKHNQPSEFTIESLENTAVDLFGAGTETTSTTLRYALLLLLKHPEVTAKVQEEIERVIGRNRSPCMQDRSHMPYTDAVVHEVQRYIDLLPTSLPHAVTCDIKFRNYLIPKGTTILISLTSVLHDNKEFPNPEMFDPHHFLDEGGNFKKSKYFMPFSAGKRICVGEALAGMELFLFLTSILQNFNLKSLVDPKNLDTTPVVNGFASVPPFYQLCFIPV

[6] = biological target: NLRP3 inflammasome (Homo sapiens, UniProt Q96P20); assay: IL-1β release assay, NLRP3 inflammasome activation in THP-1 cells; format: cell-based
Chain of NLRP3 inflammasome (Q96P20 whole entry): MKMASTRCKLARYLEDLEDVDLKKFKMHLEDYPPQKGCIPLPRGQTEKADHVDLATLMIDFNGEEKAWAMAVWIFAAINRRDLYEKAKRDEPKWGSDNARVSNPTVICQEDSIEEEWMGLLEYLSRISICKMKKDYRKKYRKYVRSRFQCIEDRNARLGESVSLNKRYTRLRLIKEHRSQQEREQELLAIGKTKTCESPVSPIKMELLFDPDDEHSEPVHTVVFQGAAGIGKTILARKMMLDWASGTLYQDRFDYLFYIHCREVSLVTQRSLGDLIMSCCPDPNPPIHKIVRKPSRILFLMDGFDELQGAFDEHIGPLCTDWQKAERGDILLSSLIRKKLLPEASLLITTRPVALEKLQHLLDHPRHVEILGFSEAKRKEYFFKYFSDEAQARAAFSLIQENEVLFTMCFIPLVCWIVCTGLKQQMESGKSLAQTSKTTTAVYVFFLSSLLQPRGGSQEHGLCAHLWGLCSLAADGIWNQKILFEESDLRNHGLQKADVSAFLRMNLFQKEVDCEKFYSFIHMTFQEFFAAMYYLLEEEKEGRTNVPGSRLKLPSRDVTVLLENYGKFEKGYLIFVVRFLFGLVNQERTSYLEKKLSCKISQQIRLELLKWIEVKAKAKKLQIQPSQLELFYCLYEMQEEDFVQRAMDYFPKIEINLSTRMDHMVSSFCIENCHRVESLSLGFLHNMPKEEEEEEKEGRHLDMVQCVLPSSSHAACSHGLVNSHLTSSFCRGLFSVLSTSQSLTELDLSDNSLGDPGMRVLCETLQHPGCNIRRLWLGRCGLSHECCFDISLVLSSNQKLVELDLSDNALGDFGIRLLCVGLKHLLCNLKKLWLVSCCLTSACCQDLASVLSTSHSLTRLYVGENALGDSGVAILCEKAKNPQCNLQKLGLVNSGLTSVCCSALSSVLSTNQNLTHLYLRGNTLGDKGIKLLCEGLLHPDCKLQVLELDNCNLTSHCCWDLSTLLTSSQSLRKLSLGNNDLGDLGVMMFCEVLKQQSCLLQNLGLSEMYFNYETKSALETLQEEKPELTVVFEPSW

Row | Structure (SMILES) | IC50 ([1]; Homo sapiens, THP-1, read-out: TNF-α IC50) | inhibition of secreted TNF-α (in words) ([1]; THP-1 cells, LPS-ATP, up to high concentration) | inhibition of secreted IL-1β in AIM2 inflammasome activation (in words) [2] | ASC oligomerization (in words) [3] | CYP2C8 inhibition (in words) [4] | CYP2C9 inhibition (in words) [5] | IC50 [6] | inhibition at 1 µM ([6]; THP-1, read-out: inhibition of secreted IL-1β)
1 | O=C(Nc1c2c(cc3c1CCC3)CCC2)NS(=O)(=O)/C=C/c1nccs1 [Compound 7, (E)-N-((1,2,3,5,6,7-hexahydro-s-indacen-4-yl)carbamoyl)-2-(thiazol-2-yl)ethene-1-sulfonamide] | > 10 µM | not affected | no effect | blocked the oligomerisation of ASC | inhibit | inhibit | – | –
2 | O=C(NS(=O)(=O)/C=C/c1nccs1)c1c2c(cc3c1OCC3)OCC2 [Compound 20] | – | – | – | – | – | – | > 1 µM | < 50%
